# Reference: PubChem BioAssay (NCI)
#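 Compound exposure: 48 hours, 5 concentrations, 96-well plates. GI50 marks 50% less growth. TGI: concentration producing complete growth inhibition.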
# Experiments:
# Test in all cases: NCI-60 cell line screen, 48 h
# [1] = system: NCI-H460 lung
# [2] = system: K-562 leukemia
# [3] = system: NCI-H522 lung
# [4] = system: MDA-MB-231 breast
# [5] = system: MALME-3M melanoma
# [6] = system: UACC-257 melanoma
# [7] = system: CCRF-CEM leukemia
# [8] = system: NCI-H226 lung
# [9] = system: KM12 colon
# [10] = system: OVCAR-3 ovarian
# [11] = system: NCI-H23 lung
# [12] = system: SF-539 CNS
# [13] = system: SN12C renal
# [14] = system: OVCAR-5 ovarian
# [15] = system: SK-MEL-2 melanoma
# [16] = system: HOP-62 NSCLC
# [17] = system: U251 CNS
# [18] = system: MOLT-4 leukemia
# [19] = system: LOX IMVI melanoma
# [20] = system: PC-3 prostate
# [21] = system: NCI/ADR-RES ovarian
# [22] = system: HCT-15 colon
# [23] = system: SF-268 CNS
# [24] = system: DU-145 prostate
# [25] = system: SNB-19 CNS
# [26] = system: SK-OV-3 ovarian
# [27] = system: SR leukemia
# [28] = system: CAKI-1 renal
# [29] = system: HOP-92 NSCLC
# [30] = system: SK-MEL-28 melanoma
# [31] = system: HCT-116 colon
# [32] = system: MDA-N
# [33] = system: UO-31 renal
# [34] = system: 786-0 renal
# [35] = system: M14 melanoma
# [36] = system: COLO 205 colon
# [37] = system: UACC-62 melanoma
# [38] = system: IGROV1 ovarian
# [39] = system: SW-620 colon
# [40] = system: ACHN renal
# [41] = system: SNB-75 CNS
# [42] = system: EKVX NSCLC
# [43] = system: SF-295 CNS
# [44] = system: RXF 393 renal
# [45] = system: RPMI-8226 leukemia
# [46] = system: T-47D breast
# [47] = system: A498 renal
# [48] = system: A549 NSCLC
# [49] = system: MDA-MB-435
# [50] = system: OVCAR-8 ovarian
# [51] = system: HT29 colon
# [52] = system: SK-MEL-5 melanoma
# [53] = system: HS 578T breast
# [54] = system: BT-549 breast
# [55] = system: TK-10 renal
# [56] = system: HL-60(TB) leukemia
# [57] = system: HCC-2998 colon
# [58] = system: OVCAR-4 ovarian
# [59] = system: MCF7 breast
compound,measurement,setting,value
CCOC(=O)c1c(N2CCCC2)ncn(Cc2ccccc2)c1=S,TGI,[1],> 100 µM
same,TGI,[2],> 100 µM
same,TGI,[3],> 100 µM
same,TGI,[4],> 100 µM
same,TGI,[5],> 100 µM
same,TGI,[6],> 100 µM
same,TGI,[7],> 100 µM
same,TGI,[8],> 100 µM
same,TGI,[9],> 100 µM
same,TGI,[10],> 100 µM
same,TGI,[11],> 100 µM
same,TGI,[12],> 100 µM
same,TGI,[13],> 100 µM
same,TGI,[14],> 100 µM
same,TGI,[15],> 100 µM
same,TGI,[16],> 100 µM
same,TGI,[17],> 100 µM
same,TGI,[18],> 100 µM
same,TGI,[19],> 100 µM
same,TGI,[20],> 100 µM
same,TGI,[21],> 100 µM
same,TGI,[22],> 100 µM
same,TGI,[23],> 100 µM
same,TGI,[24],> 100 µM
same,TGI,[25],> 100 µM
same,TGI,[26],> 100 µM
same,TGI,[27],> 100 µM
same,TGI,[28],88.3 µM
same,TGI,[29],> 100 µM
same,TGI,[30],> 100 µM
same,TGI,[31],> 100 µM
same,TGI,[32],> 100 µM
same,TGI,[33],> 100 µM
same,TGI,[34],> 100 µM
same,TGI,[35],> 100 µM
same,TGI,[36],> 100 µM
same,TGI,[37],> 100 µM
same,TGI,[38],> 100 µM
same,TGI,[39],> 100 µM
same,TGI,[40],> 100 µM
same,TGI,[41],> 100 µM
same,TGI,[42],> 100 µM
same,TGI,[43],> 100 µM
same,TGI,[44],> 100 µM
same,TGI,[45],> 100 µM
same,TGI,[46],> 100 µM
same,TGI,[47],> 100 µM
same,TGI,[48],> 100 µM
same,TGI,[49],> 100 µM
same,TGI,[50],> 100 µM
same,TGI,[51],> 100 µM
same,TGI,[52],> 100 µM
same,TGI,[53],> 100 µM
same,TGI,[54],> 100 µM
same,TGI,[55],> 100 µM
same,TGI,[56],> 100 µM
same,TGI,[57],> 100 µM
same,TGI,[58],> 100 µM
CC1(O)CC(=O)c2c(cc3ccc(-c4c5c(c(O)c6c(O)cccc46)C(=O)CC(C)(O)C5)c(O)c3c2O)C1 (configuration not stated),TGI,[1],5.64 µM
same,TGI,[2],11.9 µM
same,TGI,[3],1.12 µM
same,TGI,[4],3.93 µM
same,TGI,[5],1.61 µM
same,TGI,[6],1.3 µM
same,TGI,[7],10.5 µM
same,TGI,[8],2.16 µM
same,TGI,[9],0.24 µM
same,TGI,[59],1.7 µM
same,TGI,[10],0.646 µM
same,TGI,[11],1.35 µM
same,TGI,[12],2.34 µM
same,TGI,[13],13.1 µM
same,TGI,[14],8.66 µM
same,TGI,[15],0.897 µM
same,TGI,[16],1.55 µM
same,TGI,[17],1.74 µM
same,TGI,[18],8.36 µM
same,TGI,[19],5.41 µM
same,TGI,[20],11.2 µM
same,TGI,[21],6.63 µM
same,TGI,[22],4.08 µM
same,TGI,[23],1.81 µM
same,TGI,[24],3.43 µM
same,TGI,[25],4.37 µM
same,TGI,[26],> 100 µM
same,TGI,[27],7.06 µM
same,TGI,[28],2.92 µM
same,TGI,[29],0.815 µM
same,TGI,[30],7.01 µM
same,TGI,[31],3.86 µM
same,TGI,[32],14.2 µM
same,TGI,[33],0.726 µM
same,TGI,[34],7.64 µM
same,TGI,[35],7.11 µM
same,GI50,[36],0.0361 µM
same,TGI,[36],0.158 µM
same,TGI,[37],> 100 µM
same,TGI,[38],3.43 µM
same,TGI,[39],18.9 µM
same,TGI,[40],11 µM
same,TGI,[41],0.773 µM
same,TGI,[42],4.35 µM
same,TGI,[43],0.874 µM
same,TGI,[44],1.11 µM
same,TGI,[45],2.8 µM
same,TGI,[47],3.53 µM
same,TGI,[48],11.1 µM
same,TGI,[49],1.97 µM
same,TGI,[50],3.76 µM
same,TGI,[51],3.96 µM
same,TGI,[52],0.495 µM
same,TGI,[53],4.4 µM
same,TGI,[54],6.75 µM
same,TGI,[55],10.3 µM
same,TGI,[56],0.772 µM
same,TGI,[57],1.07 µM
same,TGI,[58],12.9 µM
